The target in the test is T1, Cholecystokinin receptor (Rattus norvegicus, UniProt P30551+P30553).
T1 sequence (P30551 whole entry): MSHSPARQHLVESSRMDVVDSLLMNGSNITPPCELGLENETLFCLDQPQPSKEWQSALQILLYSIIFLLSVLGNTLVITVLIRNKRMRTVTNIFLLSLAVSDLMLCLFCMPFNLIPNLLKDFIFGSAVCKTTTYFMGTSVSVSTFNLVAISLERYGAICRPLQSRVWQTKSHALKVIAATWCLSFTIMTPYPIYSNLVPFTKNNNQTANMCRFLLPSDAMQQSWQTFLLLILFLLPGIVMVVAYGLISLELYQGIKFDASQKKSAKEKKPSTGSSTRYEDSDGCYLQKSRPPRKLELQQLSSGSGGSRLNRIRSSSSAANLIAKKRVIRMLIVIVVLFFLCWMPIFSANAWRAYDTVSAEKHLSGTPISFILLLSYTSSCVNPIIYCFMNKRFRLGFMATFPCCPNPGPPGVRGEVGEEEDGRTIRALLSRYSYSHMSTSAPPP
T1 sequence (P30553 whole entry): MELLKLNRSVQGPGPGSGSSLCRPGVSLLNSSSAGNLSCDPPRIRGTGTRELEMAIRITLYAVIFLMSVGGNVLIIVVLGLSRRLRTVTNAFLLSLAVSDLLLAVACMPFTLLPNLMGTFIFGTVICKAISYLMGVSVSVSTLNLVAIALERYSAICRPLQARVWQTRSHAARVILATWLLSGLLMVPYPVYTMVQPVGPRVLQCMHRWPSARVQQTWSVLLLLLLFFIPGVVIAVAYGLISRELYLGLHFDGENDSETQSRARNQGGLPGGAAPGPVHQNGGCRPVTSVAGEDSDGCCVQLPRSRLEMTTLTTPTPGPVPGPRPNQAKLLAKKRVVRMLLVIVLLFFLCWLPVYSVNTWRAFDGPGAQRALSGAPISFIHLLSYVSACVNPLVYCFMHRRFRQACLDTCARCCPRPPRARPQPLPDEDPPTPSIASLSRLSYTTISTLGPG
Kind of test: Inhibition of [125I]CCK binding to rat pancreatic Cholecystokinin receptor. Type of test: protein assay.
As usually defined, the IC50 is the concentration at which inhibition is half-maximal. Higher therefore signals weaker potency in that assay. In turn, `CC(C)C[C@H]1C(=O)N2c3ccccc3[C@@](O)(C[C@@H]3NC(=O)c4ccccc4-n4c3nc3ccccc3c4=O)[C@H]2N1C(=O)C(Cc1ccc(OCc2ccccc2)cc1)NC(=O)OC(C)(C)C` (stereo partly drawn) showed an IC50 of more than 100 µM.
The molecule `CC(C)C[C@H]1C(=O)N2c3ccccc3[C@@](O)(C[C@@H]3NC(=O)c4ccccc4-n4c3nc3ccccc3c4=O)[C@H]2N1C(=O)OCc1ccccc1` displayed an IC50 of 5 µM.
The value for `CC(C)C[C@@H]1N[C@H]2N(C1=O)c1ccccc1[C@]2(C[C@@H]1NC(=O)c2ccccc2-n2c1nc1ccccc1c2=O)OC(=O)CCC(=O)O` was 85 µM; that for `CCN1[C@H]2N(C(=O)[C@@H]1CC(C)C)c1ccccc1[C@@]2(O)C[C@@H]1NC(=O)c2ccccc2N2C(=O)c3ccccc3NC12` (stereo partly drawn) was 0.4 µM.
The result for `CC(C)C[C@H]1C(=O)N2c3ccccc3[C@](C[C@@H]3NC(=O)c4ccccc4-n4c3nc3ccccc3c4=O)(OC(=O)CCC(=O)OCc3ccccc3)[C@H]2N1C(=O)OCc1ccccc1` reads 100 µM; that for `CC(=O)N1[C@H]2N(C(=O)[C@@H]1CC(C)C)c1ccccc1[C@@]2(O)C[C@@H]1NC(=O)c2ccccc2-n2c1nc1ccccc1c2=O`, 22 µM; that for `CC(C)C[C@H]1C(=O)N2c3ccccc3[C@@](O)(C[C@@H]3NC(=O)c4ccccc4-n4c3nc3ccccc3c4=O)[C@H]2N1C(=O)C(CCCCNC(=O)OCc1ccccc1)NC(=O)OC(C)(C)C` (stereo partly drawn), more than 100 µM.
As for `CC(C)C[C@H]1C(=O)N2c3ccccc3[C@@](O)(C[C@@H]3NC(=O)c4ccccc4-n4c3nc3ccccc3c4=O)[C@H]2N1C(=O)CCC(=O)O`, the IC50 is more than 100 µM.
With `CC(C)C[C@H]1C(=O)N2c3ccccc3[C@@](O)(C[C@@H]3NC(=O)c4ccccc4-n4c3nc3ccccc3c4=O)[C@H]2N1C(=O)C(CCCNC(=O)OCc1ccccc1)NC(=O)OC(C)(C)C` (stereo partly drawn), the IC50 was 4.3 µM.
The molecule `CC(C)C[C@H]1C(=O)N2c3ccccc3[C@@](O)(C[C@@H]3NC(=O)c4ccccc4N4C(=O)c5ccccc5NC34)[C@H]2N1C(=O)CCC(=O)O` (stereo partly drawn) showed an IC50 of 4.3 µM.
The molecule `CC(C)C[C@H]1C(=O)N2c3ccccc3[C@@](O)(C[C@@H]3NC(=O)c4ccccc4-n4c3nc3ccccc3c4=O)[C@H]2N1C(=O)C(N)CCCCN.Cl` (stereo partly drawn) returned an IC50 of 2.5 µM. Against the preceding molecule, the IC50 is about 1.7-fold lower.
In the case of `CC(C)C[C@H]1C(=O)N2c3ccccc3[C@](C[C@@H]3NC(=O)c4ccccc4N4C(=O)c5ccccc5NC34)(OC(=O)CCC(=O)OCc3ccccc3)[C@H]2N1C(=O)OCc1ccccc1` (stereo partly drawn), the IC50 stood at 100 µM.
In the case of `CC(C)C[C@H]1C(=O)N2c3ccccc3[C@@](O)(C[C@@H]3NC(=O)c4ccccc4N4C(=O)c5ccccc5NC34)[C@H]2N1C(=O)CCC(=O)[O-].[Na+]` (stereo partly drawn), the half-inhibitory concentration (IC50) is 1 µM.
For `CC(C)C[C@H]1C(=O)N2c3ccccc3[C@@](O)(C[C@@H]3NC(=O)c4ccccc4-n4c3nc3ccccc3c4=O)[C@H]2N1C(=O)C(Cc1ccc(O)cc1)NC(=O)OC(C)(C)C` (stereo partly drawn), the IC50 worked out at 46 µM.
The value for `CC(C)C[C@@H]1N[C@H]2N(C1=O)c1ccccc1[C@@]2(O)C[C@@H]1NC(=O)c2ccccc2N2C(=O)c3ccccc3NC12` (stereo partly drawn) was 0.2 µM.
The value for `CC(C)C[C@H]1C(=O)N2c3ccccc3[C@@](O)(C[C@@H]3NC(=O)c4ccccc4N4C(=O)c5ccccc5NC34)[C@H]2N1C(=O)C(CCCNC(=O)OCc1ccccc1)NC(=O)OC(C)(C)C` (stereo partly drawn) was 1.3 µM; that for `CC(C)C[C@H]1C(=O)N2c3ccccc3[C@@](O)(C[C@@H]3NC(=O)c4ccccc4N4C(=O)c5ccccc5NC34)[C@H]2N1CCCc1ccccc1` (stereo partly drawn) was 0.2 µM.
Molecule `CC(C)C[C@@H]1N[C@H]2N(C1=O)c1ccccc1[C@@]2(O)C[C@@H]1NC(=O)c2ccccc2-n2c1nc1ccccc1c2=O` [ASPERLICIN] showed an IC50 of […].

(Values after ChEMBL document CHEMBL1123235, “Cholecystokinin antagonists. Synthesis of asperlicin analogues with improved potency and water solubility” (J Med Chem, 1986).)
